Test results as given in patent US20230405015A1, “SUBSTITUTED 3,6-DIHYDRO-2H-1,3,4-OXADIAZIN-2-ONES FOR THE TREATMENT OF SARCOMA” (Bayer Aktiengesellschaft, priority 2021, published 2023).
“And” between values parts separate entries of the source, which are not always exact repeats. Identical values can stand only once. “Also recorded” adds a separate entry of the source.

Assays:
[1] = system: human sarcoma cell line G-292 clone A141B1; assay: Cell proliferation measurement in vitro (Cell Titer Glo, 72 h); type: cell-based; details: G292, G-292 clone A141B1, 72 h, read-out: Anti-proliferation Target IC50
Experimental: The antiproliferative activity of the compounds of the general formula (I) was examined in vitro in the human sarcoma cell line G-292 clone A141B1 (from ATCC). For this purpose, the appropriate number of cells (1000) were plated in 384-well plates with appropriate growth medium McCoy's 5a Medium Modified, FCS 10% final (Biochrom; #S 0415); and incubated at 37° C. overnight. After 24 h, cells on one plate (0 h plate) were treated with 30 μl/cavity of CTG solution (Promega Cell Titer Glo (catalogue #G755B and G756B)) and incubated at room temperature for 10 min, and luminescence was measured by means of a VICTOR V (Perkin Elmer), in order to determine cell viability on commencement of treatment. The cells on the test plate were treated with a set of compounds of the general formula (I) as indicated below and incubated at 37° C. for 72 h. The compounds were added to the cells by means of an HP D300 digital dispenser in a 10-step 2.5-fold dilution series generally starting at a maximum final drug concentration of 100 nM. As control, the cells were treated with vehicle (DMSO at 0.3% final concentration). After 72 h, the cells were treated with 30 μl/cavity of CTG solution (Promega Cell Titer Glo (catalogue #G755B and G756B)) and incubated at room temperature for 10 min, and luminescence was measured by means of a VICTOR V (Perkin Elmer), in order to determine cell viability at the end of treatment. The percentage effect on cell growth and the IC50 derived therefrom were determined for each test substance using the values from the 0 h plate (=maximum inhibition) and the DMSO control (=minimum inhibition). The IC50 values were calculated using a 4-parameter fit.

[2] = system: sarcoma patient derived xenograft model SA10199 (recurrent malignant solitary fibrous tumor); assay: In vivo xenotransplantation model SA10199; parameters: species or system mice
Source text: (§1) The anti-tumor activities of (6S)-5-[4′-fluoro-2-(trifluoromethyl)biphenyl-4-yl]-6-methyl-3,6-dihydro-2H-1,3,4-oxadiazin-2-one was examined in murine xenotransplantation models of human cancer. For this purpose, mice were implanted subcutaneously with tumor pieces. At a mean tumor size of 20-40 mm^2 animals were randomized into treatment and control groups (at least n=10 animals/group) and treatment started with vehicle only or respective compound (formulation: 90% PEG400/10% Ethanol; application route: per os (“p.o.”), orally). The oral application volume was 10 ml/kg. In the case of twice daily treatments, the time interval between two applications per day was 6-7 h. The tumor size and the body weight were determined at least weekly. The tumor area was detected by means of an electronic caliper [length (mm)×width (mm)]. The experiment was ended when the study reached the pre-determined ethical endpoint based on German and European animal welfare regulations. In vivo anti-tumor efficacy is presented as T/C ratio at study end (Treatment/Control; mean tumor weight of treatment group/mean tumor weight of control group) in Table 2. A compound having a T/C below 0.5 is defined as active (i.e., effective). Statistical analysis was assessed using SigmaStat software. […]

[3] = system: sarcoma patient derived xenograft model SA3831 (Osteosarcoma); assay: In vivo xenotransplantation model SA3831; parameters: species or system mice
Source text: as §1

[4] = system: sarcoma patient derived xenograft model SA4058 (Synovial Sarcoma); assay: In vivo xenotransplantation model SA4058; parameters: species or system mice
Source text: as §1

[5] = system: sarcoma patient derived xenograft model SA10245 (Fibrous histiocytoma); assay: In vivo xenotransplantation model SA10245; parameters: species or system mice
Source text: as §1

[6] = system: sarcoma patient derived xenograft model SA16044 (Soft Tissue Sarcoma); assay: In vivo xenotransplantation model SA16044; parameters: species or system mice; details: for T/C: SA16044 Soft Tissue Sarcoma PDX subcutaneous in mice, 10 mg/kg 2QD p.o., at study end
Source text: The anti-tumor activities of (6S)-5-[4′-fluoro-2-(trifluoromethyl)biphenyl-4-yl]-6-methyl-3,6-dihydro-2H-1,3,4-oxadiazin-2-one was examined in murine xenotransplantation models of human cancer. For this purpose, mice were implanted subcutaneously with tumor pieces. At a mean tumor size of 20-40 mm^2 animals were randomized into treatment and control groups (at least n=10 animals/group) and treatment started with vehicle only or respective compound (formulation: 90% PEG400/10% Ethanol; application route: per os (“p.o.”), orally). The oral application volume was 10 ml/kg. In the case of twice daily treatments, the time interval between two applications per day was 6-7 h. The tumor size and the body weight were determined at least weekly. The tumor area was detected by means of an electronic caliper [length (mm)×width (mm)]. The experiment was ended when the study reached the pre-determined ethical endpoint based on German and European animal welfare regulations. In vivo anti-tumor efficacy is presented as T/C ratio at study end (Treatment/Control; mean tumor weight of treatment group/mean tumor weight of control group) in Table 2. A compound having a T/C below 0.5 is defined as active (i.e., effective). Statistical analysis was assessed using SigmaStat software. A one-way analysis of variance was performed and differences to the control were compared by a pair-wise comparison procedure (Dunn's method).
Patient-derived xenograft models established by direct transplantation of fresh human tumors are considered to more closely resemble the heterogeneity of the actual human tumor compared to xenograft models established from cell lines that have been cultured in vitro for decades. The anti-tumor activity of (6S)-5-[4′-fluoro-2-(trifluoromethyl)biphenyl-4-yl]-6-methyl-3,6-dihydro-2H-1,3,4-oxadiazin-2-one was assessed in patient-derived xenograft models of sarcoma, a tumor type consisting of many subtypes and a high medical need due to absence of approved targeted therapies. The tumor models are originating from CrownBio.

Row | IC50 [1] [nM] | Structure (SMILES) | other results
1 | 12.5 | O=C1NN=C(c2ccc(-c3cnn(C(F)F)c3)c(C(F)(F)F)c2)CO1 [Example 146, 5-{4-[1-(Difluoromethyl)-1H-pyrazol-4-yl]-3-(trifluoromethyl)phenyl}-3,6-dihydro-2H-1,3,4-oxadiazin-2-one] | –
2 | 35.1 | O=C1NN=C(c2ccc(-c3ccc(C(F)F)cc3)c(F)c2)CO1 [Example 92, 5-[4'-(Difluoromethyl)-2-fluoro[1,1'-biphenyl]-4-yl]-3,6-dihydro-2H-1,3,4-oxadiazin-2-one] | –
3 | 193 | Cc1ccc(C2=NNC(=O)OC2)cc1C(F)(F)F [Example 139, 5-[4-Methyl-3-(trifluoromethyl)phenyl]-3,6-dihydro-2H-1,3,4-oxadiazin-2-one] | –
4 | 103 | O=C1NN=C(c2ccc(N3CCOCC3)c(F)c2)CO1 [Example 4, 5-[3-Fluoro-4-(morpholin-4-yl)phenyl]-3,6-dihydro-2H-1,3,4-oxadiazin-2-one] | –
5 | 49.6 | Cc1cc(C2=NNC(=O)OC2)ccc1-c1ccc(F)cc1 [Example 7, 5-(4'-Fluoro-2-methylbiphenyl-4-yl)-3,6-dihydro-2H-1,3,4-oxadiazin-2-one] | –
6 | 37.2 | C[C@@H]1OC(=O)NN=C1c1ccc(-n2ccc(C(F)(F)F)n2)c(C(F)(F)F)c1 [Example 265, (6S)-6-Methyl-5-{3-(trifluoromethyl)-4-[3-(trifluoromethyl)-1H-pyrazol-1-yl]phenyl}-3,6-dihydro-2H-1,3,4-oxadiazin-2-one] | –
7 | 17.6 | C[C@@H]1OC(=O)NN=C1c1ccc(-c2ccc(F)cc2)c(C(F)(F)F)c1 [Example 135, (6S)-5-[4'-Fluoro-2-(trifluoromethyl)biphenyl-4-yl]-6-methyl-3,6-dihydro-2H-1,3,4-oxadiazin-2-one] | anti-tumor efficacy (in words) ([2]; SA10199 PDX in mice, versus vehicle, unpaired t-test): significant anti-tumor efficacy; also recorded: moderate tumor-growth inhibition; T/C ([2]; SA10199 Sarcoma (recurrent malignant solitary fibrous tumor) PDX subcutaneous in mice, 10 mg/kg 2QD p.o., at study end, listed as (6S)-5-[4'-fluoro-2-(trifluoromethyl)biphenyl-4-yl]-6-methyl-3,6-dihydro-2H-1,3, 10 mg/kg): 0.34; T/C ([3]; SA3831 Osteosarcoma PDX subcutaneous in mice, 10 mg/kg 2QD p.o., at study end): 0.01; anti-tumor efficacy (in words) ([3]; SA3831 PDX in mice, versus vehicle, unpaired t-test): strong tumor-growth inhibition; also recorded: significant anti-tumor efficacy; anti-tumor efficacy (in words) ([4]; SA4058 PDX in mice, versus vehicle, unpaired t-test): significant anti-tumor efficacy; also recorded: strong tumor-growth inhibition; T/C ([4]; SA4058 Synovial Sarcoma PDX subcutaneous in mice, 10 mg/kg 2QD p.o., at study end): 0.12; T/C ([5]; SA10245 Fibrous histiocytoma PDX subcutaneous in mice, 10 mg/kg 2QD p.o., at study end): 0.73; anti-tumor efficacy (in words) ([5]; SA10245 PDX in mice, versus vehicle, unpaired t-test): non-significant signs of anti-tumor efficacy; also recorded: least sensitive model; anti-tumor efficacy (in words) ([6]; SA16044 PDX in mice, versus vehicle, unpaired t-test): significant anti-tumor efficacy; also recorded: moderate tumor-growth inhibition; T/C ([6]; listed as (6S)-5-[4'-fluoro-2-(trifluoromethyl)biphenyl-4-yl]-6-methyl-3,6-dihydro-2H-1,3, 10 mg/kg): 0.33; T/C ([6]; listed as (6S)-5-[4′-fluoro-2-(trifluoromethyl)biphenyl-4-yl]-6-methyl-3,6-dihydro-2H-1,3, 10 mg/kg): 0.35 and 0.33
8 | 85.7 | CC(C)(C)CCc1ccc(C2=NNC(=O)OC2)cc1C(F)(F)F [Example 269, 5-[4-(3,3-Dimethylbutyl)-3-(trifluoromethyl)phenyl]-3,6-dihydro-2H-1,3,4-oxadiazin-2-one] | –
9 | 604 | C[C@@H]1OC(=O)NN=C1c1ccc(N2CCN(C)CC2)c(C(F)(F)F)c1 [Example 277, (6S)-6-Methyl-5-[4-(4-methylpiperazin-1-yl)-3-(trifluoromethyl)phenyl]-3,6-dihydro-2H-1,3,4-oxadiazin-2-one] | –
10 | 96.8 | Cc1cc(C2=NNC(=O)OC2)ccc1-c1ccc(F)c(F)c1 [Example 8, 5-(3',4'-Difluoro-2-methylbiphenyl-4-yl)-3,6-dihydro-2H-1,3,4-oxadiazin-2-one] | –
11 | 38.2 | O=C1NN=C(c2ccc(-c3ccc(F)cc3)c(C(F)(F)F)c2)CO1 [Example 3, 5-[4'-Fluoro-2-(trifluoromethyl)biphenyl-4-yl]-3,6-dihydro-2H-1,3,4-oxadiazin-2-one] | –
12 | 26 | O=C1NN=C(c2ccc(N3CCC(F)(F)CC3)c(F)c2)CO1 [Example 1, 5-[4-(4,4-Difluoropiperidin-1-yl)-3-fluorophenyl]-3,6-dihydro-2H-1,3,4-oxadiazin-2-one] | –
13 | 16.8 | COCCCc1ccc(C2=NNC(=O)OC2)cc1C(F)(F)F [Example 267, 5-[4-(3-Methoxypropyl)-3-(trifluoromethyl)phenyl]-3,6-dihydro-2H-1,3,4-oxadiazin-2-one] | –
